In US6159953A, “Anti-malarial composition and method of use” (Catholic University of America, priority 1992, dated 2000):
Read-outs that look alike come from different tables or passages of the source.

Experiments:
[1] = test system: Plasmodium falciparum, Indochina clone W2; assay: microbe, parasite or virus in culture; settings: for IC50: Plasmodium falciparum
Experimental: In the antimalarial experiment with parasites, incorporation of radioactivity from [G-^3 H]-hypoxanthine into nucleic acids served as a measure of parasite proliferation. […] Each data point represents an average of two determinations. In the study of toxicity to human cells, proliferation of cells was determined directly by measuring the number of viable cells per well. […] Each data point represents an average of two determinations. 5-fluoro-orotate (.circle-solid.), 5-fluorouracil (.box-solid.), 5-fluorouridine (.tangle-solidup.), and 5-fluoro-2'-deoxyuridine (.diamond-solid.).
Half shaded symbols represent overlapping data points.
3. Effects of pyrimidine analogues alone or in combination with normal pyrimidine bases or nucleosides or with amino acid derivatives can be tested in malaria parasite-infected erythrocytes. Varying concentrations of pyrimidine analogues in culture medium are added to individual wells of microtitre plates [Desjardins, R. E. et al., Antimicrob. […] Parasitemic erythrocytes in culture medium are added to each well. […] As an alternative to adding a radioactive precursor of nucleic acid biosynthesis, the end point for determining the effects of added drugs can be the incorporation of a radioactive amino acid, e.g., [U-^14 C]-isoleucine, into parasite protein.
Fluoropyrimidines, dispersed in 25 μl of culture medium, were added to individual wells of a 96-well microtitre plate. […] Finally, the incorporation of 0.5 μCi of [G-^3 H]hypoxanthine (1 Ci/mmol) into nucleic acids in each well was determined; this served as a measure of parasite proliferation.

[2] = test system: Plasmodium falciparum, Sierra Leone clone; assay: Increase in parasitemia by light microscopy (Giemsa-stained smears), Sierra Leone clone; format: cell-based, P. falciparum; settings: Table 2, light microscopy
Experimental: Additionally, parasite-infected and treated erythrocytes can be smeared on microscope slides, stained with, e.g., Giemsa stain, and the ratio of infected to non-infected erythrocytes determined.
The chloroquine-sensitive Sierra Leone clone of P. falciparum was cultured in erythrocytes as in Example 1 above. In one method of determining the toxicity of 5-fluoro-orotate, [G-^3 H]-hypoxanthine uptake was used as an indicator of parasite proliferation, according to the procedure of Example 1 above. In a second method, the increase in parasitemia was determined directly by smearing infected erythrocytes on microscope slides, staining with Giemsa stain, and determining the ratio of infected to non-infected erythrocytes. In a third method, parasite-infected erythrocytes were incubated with [U-^14 C]-isoleucine (0.5 μCi; 0.33 Ci/mmol), and the amount of radioactivity incorporated into precipitable proteins determined.

[3] = test system: HeLa S3 human cervix epithelioid carcinoma cells; assay: Toxicity to cultured HeLa S3 cells, number of viable cells; format: cell-based
From the text: (§1) 2. Effects of orotate analogues on cell viability and the ability to synthesize nucleic acids from radioactive precursors, and the rescuing effects of normal pyrimidine bases or nucleosides or amino acid derivatives such as histidinol, can be tested in human-derived tissue culture cell lines. Human HT-1080 human sarcoma cells [Rusheed, S., et al., Cancer, 33:1027-30 (1974)], human diploid IMR-90 cells [Nichols, W. W., et al., Science, 196:60-3 (1977)], human cervical […] HeLa S3 cells [Puck, T. T., et al., J. Exp. Med., 103:273-84 (1956)], HL-60 human myeloid leukemia cells [Collins, S. J., et al., Nature, 270:347-9 (1977)], and mouse leukemia L-1210 cells [Moore, G. E., J. Nat. […] The growth medium most suitable for each cell line can be determined by reference to the publications cited above: briefly, HT-1080 cells are maintained in Eagle's Minimal Essential Medium (EMEM) supplemented with 5% fetal bovine serum (FBS) and 2 mM L-glutamine; IMR-90 cells are grown in EMEM supplemented with 10% FBS, 10 mM Hepes buffer, 0.21% NaHCO3, and 2 mM L-glutamine. […]
(§2) Toxicity of pyrimidine analogues to cultured human cells is determined as follows. […] Thereafter, the number of cells in each well is determined. […] Cells that grow in suspension (e.g., HL-60 and L-1210 cells) are transferred to centrifuge tubes, pelleted at low speed, washed, and the viability determined as above. […]

mammalian cell lines = assay: Toxicity to a battery of mammalian cell lines; format: cell-based, human and mouse
From the text: as §1, §2

O=C(O)c1[nH]c(=O)[nH]c(=O)c1F [5-fluoro-orotate]
effect of uridine on cytotoxicity towards malarial parasites ([1]; Indochina clone W-2, 48 h, 1 mM uridine (FIG. 2)): no effect | IC50 ([1]; W2): 0.006 ± 0.0017 µM | IC50 ([1]; W2, 48 h): 0.006 µM | times more active than chloroquine ([1]; multidrug-resistant Indochina clone): 21 times | IC50 [2]: 0.0025 µM | IC50 ([3]; HeLa S3, with 1 mM uridine, read-out: IC50 With 1 mM Uridine): 3.5 µM | IC50 ([3]; HeLa S3, without uridine, read-out: IC50 Without Uridine): 2 µM | toxicity to rapidly dividing mammalian cells (mammalian cell lines; 0.1 to 1 μM, in culture): not toxic to rapidly dividing mammalian cells in culture | IC50 (mammalian cell lines; read-out: IC50 range over the mammalian cell lines): 0.9 to 10 µM
